Data on one molecule can be found in US7875599B2, “C-17-heteroaryl steroidal CYP17 inhibitors/antiandrogens, in vitro biological activities, pharmacokinetics and antitumor activity” (University of Maryland, priority 2005, dated 2011).

Broadly, the melting point is the temperature, or range, at which the solid turns liquid.

In turn, `C[C@]12CCC(=O)C=C1CC[C@@H]1[C@@H]2CC[C@]2(C)C(n3cnc4ccccc43)=CC[C@@H]12` [Compound 6, 17-(1H-benzimidazol-1-yl)androsta-4,16-diene-3-one] displayed a melting point of 201 to 204 °C.
